{
  "source": "patent US7244431B2",
  "about": "“Allergy vaccines and their preparation” (priority 2000, dated 2007)",
  "key": {"[1]": {"system": "birch pollen allergic patients", "experiment": "Skin prick testing of allergic patients", "type": "in vivo, human", "method": "SPTs were performed on the individuals forearms as described ([…]. et al. (1997) J. Clin Invest. 99, 1673-168; Dreborg S: (1989) J. Am. Acad. DerMatol. 21, 820-821). […] In addition standardized skin prick solutions (birch pollen extract and histamine) (Allergopharma, Reinbek, Germany) were tested. Reactions were recorded 20 minutes after SPT by photography and by transferring the ballpoint pen-surrounded wheal area with a scotch tape to paper."}, "[2]": {"system": "IgE antibodies in sera from birch pollen allergic patients", "experiment": "ELISA detection of peptide- and rBet v 1-specific IgE antibodies", "type": "binding, human", "method": "Birch pollen allergic patients suffering from allergic rhinoconjunctivitis and/or asthma to birch pollen and related allergens were selected according to case history indicative for seasonal birch pollinosis and characterized by skin prick testing with birch pollen extract and serological CAP RAST (Pharmacia Diagnostics, Uppsala, Sweden) testing. Total IgE levels in the sera were determined by CAP RIST measurements (Pharmacia). […] Sera from 60 birch pollen allergic patients and a non-atopic individual were used for IgE competition studies. The birch pollen allergic patients group consisted of 25 males and 35 females with a mean age of 37 years (ranging from 19-60 years) (Table 2).\nSubsequently, plates were incubated with 1:3 diluted sera from 60 birch pollen allergic patients and from a non-atopic individual overnight at 4° C. Bound IgE antibodies were detected with a 1:1000 diluted alkaline-phosphatase-coupled mouse monoclonal anti-human IgE antibody (Pharmingen, San Diego, Calif.)."}},
  "data": [
    {"compound": "NCCc1c[nH]cn1", "note": "[histamine, reference compound]", "values": [
      {"measurement": "mean wheal diameter", "setting": "[1]; individual 1, standardized skin prick solution", "value": 5, "unit": "mm"},
      {"measurement": "mean wheal diameter", "setting": "[1]; individual 2, standardized skin prick solution", "value": 6, "unit": "mm"},
      {"measurement": "mean wheal diameter", "setting": "[1]; individual 3, standardized skin prick solution", "value": 7, "unit": "mm"},
      {"measurement": "mean wheal diameter", "setting": "[1]; individual 4, standardized skin prick solution", "value": 5, "unit": "mm"},
      {"measurement": "mean wheal diameter", "setting": "[1]; individual 5, standardized skin prick solution", "value": 5.5, "unit": "mm"},
      {"measurement": "mean wheal diameter", "setting": "[1]; individual 6 (without birch pollen allergy), standardized skin prick solution", "value": 4, "unit": "mm"},
      {"measurement": "immediate skin reaction", "setting": "[1]; standardized skin prick solutions", "value": "All individuals reacted"}
    ]},
    {"compound": "CGPGTIKKISFPEGFPFKYVKDRVDEVDHTN [Peptide P3, Bet v 1-derived synthetic peptide, position aa 50-79, one cysteine added]", "values": [
      {"measurement": "IgE (OD)", "setting": "[2]; serum of NHS, non-allergic control individual", "value": "— (Dashes indicate reactivities below the cut-off level (OD=0.050))"},
      {"measurement": "IgE (OD)", "setting": "[2]; serum of patient 1", "value": "— (Dashes indicate reactivities below the cut-off level (OD=0.050))"},
      {"measurement": "IgE (OD)", "setting": "[2]; serum of patient 2", "value": "— (Dashes indicate reactivities below the cut-off level (OD=0.050))"},
      {"measurement": "IgE (OD)", "setting": "[2]; serum of patient 3", "value": "— (Dashes indicate reactivities below the cut-off level (OD=0.050))"},
      {"measurement": "IgE (OD)", "setting": "[2]; serum of patient 4", "value": "— (Dashes indicate reactivities below the cut-off level (OD=0.050))"},
      {"measurement": "IgE (OD)", "setting": "[2]; serum of patient 5", "value": "— (Dashes indicate reactivities below the cut-off level (OD=0.050))"},
      {"measurement": "IgE (OD)", "setting": "[2]; serum of patient 6", "value": "— (Dashes indicate reactivities below the cut-off level (OD=0.050))"},
      {"measurement": "IgE (OD)", "setting": "[2]; serum of patient 7", "value": "— (Dashes indicate reactivities below the cut-off level (OD=0.050))"},
      {"measurement": "IgE (OD)", "setting": "[2]; serum of patient 8", "value": "— (Dashes indicate reactivities below the cut-off level (OD=0.050))"},
      {"measurement": "IgE (OD)", "setting": "[2]; serum of patient 9", "value": "— (Dashes indicate reactivities below the cut-off level (OD=0.050))"},
      {"measurement": "IgE (OD)", "setting": "[2]; serum of patient 10", "value": "— (Dashes indicate reactivities below the cut-off level (OD=0.050))"},
      {"measurement": "IgE (OD)", "setting": "[2]; serum of patient 11", "value": "— (Dashes indicate reactivities below the cut-off level (OD=0.050))"},
      {"measurement": "IgE (OD)", "setting": "[2]; serum of patient 12", "value": "— (Dashes indicate reactivities below the cut-off level (OD=0.050))"},
      {"measurement": "IgE (OD)", "setting": "[2]; serum of patient 13", "value": "— (Dashes indicate reactivities below the cut-off level (OD=0.050))"},
      {"measurement": "IgE (OD)", "setting": "[2]; serum of patient 14", "value": "— (Dashes indicate reactivities below the cut-off level (OD=0.050))"},
      {"measurement": "IgE (OD)", "setting": "[2]; serum of patient 15", "value": "— (Dashes indicate reactivities below the cut-off level (OD=0.050))"},
      {"measurement": "IgE (OD)", "setting": "[2]; serum of patient 16", "value": "— (Dashes indicate reactivities below the cut-off level (OD=0.050))"},
      {"measurement": "IgE (OD)", "setting": "[2]; serum of patient 17", "value": "— (Dashes indicate reactivities below the cut-off level (OD=0.050))"},
      {"measurement": "IgE (OD)", "setting": "[2]; serum of patient 18", "value": "— (Dashes indicate reactivities below the cut-off level (OD=0.050))"},
      {"measurement": "IgE (OD)", "setting": "[2]; serum of patient 19", "value": "— (Dashes indicate reactivities below the cut-off level (OD=0.050))"},
      {"measurement": "IgE (OD)", "setting": "[2]; serum of patient 20", "value": "— (Dashes indicate reactivities below the cut-off level (OD=0.050))"},
      {"measurement": "IgE (OD)", "setting": "[2]; serum of patient 21", "value": "— (Dashes indicate reactivities below the cut-off level (OD=0.050))"},
      {"measurement": "IgE (OD)", "setting": "[2]; serum of patient 22", "value": "— (Dashes indicate reactivities below the cut-off level (OD=0.050))"},
      {"measurement": "IgE (OD)", "setting": "[2]; serum of patient 23", "value": "— (Dashes indicate reactivities below the cut-off level (OD=0.050))"},
      {"measurement": "IgE (OD)", "setting": "[2]; serum of patient 24", "value": "— (Dashes indicate reactivities below the cut-off level (OD=0.050))"},
      {"measurement": "IgE (OD)", "setting": "[2]; serum of patient 25", "value": "— (Dashes indicate reactivities below the cut-off level (OD=0.050))"},
      {"measurement": "IgE (OD)", "setting": "[2]; serum of patient 26", "value": "— (Dashes indicate reactivities below the cut-off level (OD=0.050))"},
      {"measurement": "IgE (OD)", "setting": "[2]; serum of patient 27", "value": "— (Dashes indicate reactivities below the cut-off level (OD=0.050))"},
      {"measurement": "IgE (OD)", "setting": "[2]; serum of patient 28", "value": "— (Dashes indicate reactivities below the cut-off level (OD=0.050))"},
      {"measurement": "IgE (OD)", "setting": "[2]; serum of patient 29", "value": "— (Dashes indicate reactivities below the cut-off level (OD=0.050))"},
      {"measurement": "IgE (OD)", "setting": "[2]; serum of patient 30", "value": "— (Dashes indicate reactivities below the cut-off level (OD=0.050))"},
      {"measurement": "IgE (OD)", "setting": "[2]; serum of patient 31", "value": "— (Dashes indicate reactivities below the cut-off level (OD=0.050))"},
      {"measurement": "IgE (OD)", "setting": "[2]; serum of patient 32", "value": "— (Dashes indicate reactivities below the cut-off level (OD=0.050))"},
      {"measurement": "IgE (OD)", "setting": "[2]; serum of patient 33", "value": "— (Dashes indicate reactivities below the cut-off level (OD=0.050))"},
      {"measurement": "IgE (OD)", "setting": "[2]; serum of patient 34", "value": "— (Dashes indicate reactivities below the cut-off level (OD=0.050))"},
      {"measurement": "IgE (OD)", "setting": "[2]; serum of patient 35", "value": "— (Dashes indicate reactivities below the cut-off level (OD=0.050))"},
      {"measurement": "IgE (OD)", "setting": "[2]; serum of patient 36", "value": "— (Dashes indicate reactivities below the cut-off level (OD=0.050))"},
      {"measurement": "IgE (OD)", "setting": "[2]; serum of patient 37", "value": "— (Dashes indicate reactivities below the cut-off level (OD=0.050))"},
      {"measurement": "IgE (OD)", "setting": "[2]; serum of patient 38", "value": "— (Dashes indicate reactivities below the cut-off level (OD=0.050))"},
      {"measurement": "IgE (OD)", "setting": "[2]; serum of patient 39", "value": "— (Dashes indicate reactivities below the cut-off level (OD=0.050))"},
      {"measurement": "IgE (OD)", "setting": "[2]; serum of patient 40", "value": "— (Dashes indicate reactivities below the cut-off level (OD=0.050))"},
      {"measurement": "IgE (OD)", "setting": "[2]; serum of patient 41", "value": "— (Dashes indicate reactivities below the cut-off level (OD=0.050))"},
      {"measurement": "IgE (OD)", "setting": "[2]; serum of patient 42", "value": "— (Dashes indicate reactivities below the cut-off level (OD=0.050))"},
      {"measurement": "IgE (OD)", "setting": "[2]; serum of patient 43", "value": "— (Dashes indicate reactivities below the cut-off level (OD=0.050))"},
      {"measurement": "IgE (OD)", "setting": "[2]; serum of patient 44", "value": "— (Dashes indicate reactivities below the cut-off level (OD=0.050))"},
      {"measurement": "IgE (OD)", "setting": "[2]; serum of patient 45", "value": "— (Dashes indicate reactivities below the cut-off level (OD=0.050))"},
      {"measurement": "IgE (OD)", "setting": "[2]; serum of patient 46", "value": "— (Dashes indicate reactivities below the cut-off level (OD=0.050))"},
      {"measurement": "IgE (OD)", "setting": "[2]; serum of patient 47", "value": "— (Dashes indicate reactivities below the cut-off level (OD=0.050))"},
      {"measurement": "IgE (OD)", "setting": "[2]; serum of patient 48", "value": "— (Dashes indicate reactivities below the cut-off level (OD=0.050))"},
      {"measurement": "IgE (OD)", "setting": "[2]; serum of patient 49", "value": "— (Dashes indicate reactivities below the cut-off level (OD=0.050))"},
      {"measurement": "IgE (OD)", "setting": "[2]; serum of patient 50", "value": "— (Dashes indicate reactivities below the cut-off level (OD=0.050))"},
      {"measurement": "IgE (OD)", "setting": "[2]; serum of patient 51", "value": "— (Dashes indicate reactivities below the cut-off level (OD=0.050))"},
      {"measurement": "IgE (OD)", "setting": "[2]; serum of patient 52", "value": "— (Dashes indicate reactivities below the cut-off level (OD=0.050))"},
      {"measurement": "IgE (OD)", "setting": "[2]; serum of patient 53", "value": "— (Dashes indicate reactivities below the cut-off level (OD=0.050))"},
      {"measurement": "IgE (OD)", "setting": "[2]; serum of patient 54", "value": "— (Dashes indicate reactivities below the cut-off level (OD=0.050))"},
      {"measurement": "IgE (OD)", "setting": "[2]; serum of patient 55", "value": "— (Dashes indicate reactivities below the cut-off level (OD=0.050))"},
      {"measurement": "IgE (OD)", "setting": "[2]; serum of patient 56", "value": "— (Dashes indicate reactivities below the cut-off level (OD=0.050))"},
      {"measurement": "IgE (OD)", "setting": "[2]; serum of patient 57", "value": "— (Dashes indicate reactivities below the cut-off level (OD=0.050))"},
      {"measurement": "IgE (OD)", "setting": "[2]; serum of patient 58", "value": "— (Dashes indicate reactivities below the cut-off level (OD=0.050))"},
      {"measurement": "IgE (OD)", "setting": "[2]; serum of patient 59", "value": "— (Dashes indicate reactivities below the cut-off level (OD=0.050))"},
      {"measurement": "IgE (OD)", "setting": "[2]; serum of patient 60", "value": "— (Dashes indicate reactivities below the cut-off level (OD=0.050))"},
      {"measurement": "mean wheal diameter", "setting": "[1]; individual 1, 100 μg/ml", "value": 0, "unit": "mm"},
      {"measurement": "mean wheal diameter", "setting": "[1]; individual 2, 100 μg/ml", "value": 0, "unit": "mm"},
      {"measurement": "mean wheal diameter", "setting": "[1]; individual 3, 100 μg/ml", "value": 0, "unit": "mm"},
      {"measurement": "mean wheal diameter", "setting": "[1]; individual 4, 100 μg/ml", "value": 0, "unit": "mm"},
      {"measurement": "mean wheal diameter", "setting": "[1]; individual 5, 100 μg/ml", "value": 0, "unit": "mm"},
      {"measurement": "mean wheal diameter", "setting": "[1]; individual 6 (allergic, without birch pollen allergy), 100 μg/ml", "value": 0, "unit": "mm"}
    ]}
  ]
}
